Earlier results, collected in patent publication US10045960B2, “Coating composition and medical device” (TERUMO KABUSHIKI KAISHA, priority 2012, dated 2018).

Conditions: hydropathy index according to Kyte and Doolittle, J. Mol. Biol., 157, 105-132 (1982)

H.I. (hydropathy index) | SMILES
−1.3 | N[C@@H](Cc1ccc(O)cc1)C(=O)O [Tyrosine]
2.5 | N[C@@H](CS)C(=O)O [Cysteine]
1.9 | CSCC[C@H](N)C(=O)O [Methionine]
2.8 | N[C@@H](Cc1ccccc1)C(=O)O [Phenylalanine]
−0.7 | C[C@@H](O)[C@H](N)C(=O)O [Threonine]
1.8 | C[C@H](N)C(=O)O [Alanine]
4.2 | CC(C)[C@H](N)C(=O)O [Valine]
−3.5 | N[C@@H](CCC(=O)O)C(=O)O [Glutamic acid]
−3.2 | N[C@@H](Cc1c[nH]cn1)C(=O)O [Histidine]
4.5 | CC[C@H](C)[C@H](N)C(=O)O [Isoleucine]
−3.5 | NC(=O)C[C@H](N)C(=O)O [Asparagine]
−3.5 | N[C@@H](CC(=O)O)C(=O)O [Aspartic acid]
−0.8 | N[C@@H](CO)C(=O)O [Serine]

SMILES | H.I. (hydropathy index)
NCCCC[C@H](N)C(=O)O [Lysine] | −3.9
N=C(N)NCCC[C@H](N)C(=O)O [Arginine] | −4.5
N[C@@H](Cc1c[nH]c2ccccc12)C(=O)O [Tryptophan] | −0.9
